{"source": "patent US7348163B2", "about": "“Human GABAB receptor 1 promoters” (AstraZeneca AB, priority 1999, dated 2008)", "system": "human GABAB receptor 1 promoter P1b", "assay": "Luciferase reporter assay of GABAB receptor 1 promoter P1b activity (pAM440) in transfected ND7/23 cells", "assay_type": "cell-based", "details": "Forskolin 10 μM + 1-methyl-3-isobutylxanthine 0.125 mM, 24 h", "protocol": "Reporter constructs containing R1a and R1b promoter fragments were generated by PCR using plasmid pAM 364, containing genomic sequence covering the promoter regions, as template. PCR reaction was performed by standard procedure (Perkin Elmer). Briefly, an initial denaturation at 95° C. for 4 min was followed by 35 cycles of denaturation at 95° C. for 1 min, annealing at 60° C. for 1 min, elongation at 72° C. for 1 min and finally a 7 min elongation at 72° C. […]\nTo determine putative promoter activity, the reporter gene constructs were introduced into mammalian cells by transfection. […] Luciferase activity in cell extracts was measured in a Luciferase Assay System (Promega), where 40 μl of cell extracts was added to a 96-well plate (Maxisorp, Nunc) and mixed with 50 μl of luciferase substrate. Luciferase activity was then measured in a LUMIstar (BMG Lab technologies). As internal control for transfection efficiency, β-Galactosidase (β-Gal.) activity was measured in 96-well plate (Maxisorp, Nunc) using a β-Galactosidase Enzyme Assay (Promega) according to suppliers protocol.\nND7/23 cells (4×10^5) were transfected with promoter-luciferase constructs as described above. […] After incubation, cells were harvested and luciferase activity measured. Luciferase activity, minus background, is shown as arbitrary light units measured in 40 μl of cell extracts. […]", "data": [{"smiles": "CC(C)Cn1c(=O)n(C)c(=O)c2[nH]cnc21", "note": "[IBMX, 1-methyl-3-isobutylxanthine]", "values": [{"measurement": "further enhancement of forskolin induced expression", "value": "does not show a significant difference"}]}]}
